Here are results for one compound from US12246079B2, “Bisacurone composition and method of skin whitening” (Vidya Herbs, Inc., priority 2019, dated 2025).

The experiment relates to B16F10 murine melanoma cells. In words: Melanin content in α-MSH-stimulated B16F10 cells. Format: cell-based. The following applies: 400 μg, vs α-MSH alone treated B16F10 cells. The procedure:
B16F10 cells (obtained from National Centre for Cell Sciences (NCCS), Pune, India) were cultured in Dulbecco's Modified Eagle's Medium (DMEM; Sigma Aldrich Co, St Louis, USA) with 10% fetal bovine serum (FBS) and penicillin/streptomycin (100 IU.50 Pg ml-1) in a humidified atmosphere of 5% CO2 at 37° C. The cells were cultured in 6-well plates for melanin quantification and enzyme activity assays.
Determination of melanin content of cells was done using a modification of the method of Bilodeau et al (Bilodeau et al 2001). In the present study, the amount of melanin was used as an index of melanogenesis. B16 F10 cells (5×10^4) were transferred to 24-well dishes and incubated in the presence or absence of 100 nM α-MSH. Cells were then incubated for 24 h with different concentration of the composition. After washing twice with PBS, samples were dissolved in 100 μl of 1N NaOH. The samples were then incubated at 60° C. for 1 h and mixed to solubilize the melanin. Absorbance at 405 nm was compared with a standard curve of synthetic melanin.
In order to assess the anti-melanogenesis activity of the composition, the melanin content was measured in both α-MSH-untreated and α-MSH-treated B16F10 cells. The cells were treated with/without α-MSH, followed by treatment with the composition at doses of 100, 200 and 400 μg/Ml (FIG. 4A).

Regarding `OC[C@H]1O[C@@H](Oc2ccc(O)cc2)[C@H](O)[C@@H](O)[C@@H]1O` [arbutin], the “decrease of melanin content” value came to 35.96%.
